{"source": "paper PMC5399312", "about": "(Journal of Experimental & Clinical Cancer Research : CR, 2017)", "key": {"[1]": {"molecular_target": "T1, HK4 (Homo sapiens, UniProt P35557)", "T1 construct": "made in house; host or cells: E. coli BL21 (DE3)", "T1 sequence (P35557 1-465)": "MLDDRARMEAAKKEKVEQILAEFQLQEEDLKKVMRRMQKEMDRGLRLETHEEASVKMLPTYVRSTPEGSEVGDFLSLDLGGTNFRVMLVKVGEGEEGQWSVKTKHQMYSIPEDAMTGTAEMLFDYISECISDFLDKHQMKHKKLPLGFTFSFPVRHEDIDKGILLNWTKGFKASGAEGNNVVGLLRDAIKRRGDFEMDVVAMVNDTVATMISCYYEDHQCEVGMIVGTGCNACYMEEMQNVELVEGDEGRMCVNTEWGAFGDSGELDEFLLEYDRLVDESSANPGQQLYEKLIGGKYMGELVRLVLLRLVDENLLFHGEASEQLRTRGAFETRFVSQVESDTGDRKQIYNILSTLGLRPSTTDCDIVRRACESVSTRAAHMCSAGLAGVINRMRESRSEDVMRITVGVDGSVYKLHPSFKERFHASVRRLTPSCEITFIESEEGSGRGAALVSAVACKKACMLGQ", "assay": "In vitro enzyme inhibition assay (G6P-DH coupled, NADH 340 nm)", "format": "biochemical", "details": "recombinant HK4", "method": "(§1) Then 85 μL assay mix containing 100 mM Tris HCl pH 8.0, 5 mM MgCl2, 200 mM Glucose, 0.8 mM ATP, 1 mM NAD^+, 0.25 Units of G6P-DH, was added."}, "[2]": {"system": "Lovo", "assay": "Cytotoxicity test (CCK-8)", "format": "cell-based", "details": "Homo sapiens, 48 h", "method": "(§2) Met was used as a positive control. All experiments were performed in triplicate."}, "[3]": {"system": "SMMC-7721", "assay": "Cytotoxicity test (CCK-8)", "format": "cell-based", "details": "Homo sapiens, SMMC-7721, 48 h", "method": "as §2"}, "[4]": {"assay": "Cytotoxicity test (CCK-8)", "format": "cell-based", "method": "as §2"}, "[5]": {"system": "MCF-7", "assay": "Cytotoxicity test (CCK-8)", "format": "cell-based", "details": "Homo sapiens, MCF7; MCF-7, 48 h", "method": "as §2"}, "[6]": {"system": "SW480", "assay": "Cytotoxicity test (CCK-8)", "format": "cell-based", "details": "Homo sapiens, SW480, 48 h", "method": "as §2"}, "[7]": {"system": "HCT116", "assay": "Cytotoxicity test (CCK-8)", "format": "cell-based", "details": "Homo sapiens, HCT-116; HCT116, 48 h", "method": "as §2"}, "[8]": {"system": "SW480 cells", "assay": "Determination of lactate generation", "format": "cell-based, human", "details": "48 h; versus untreated or Met treated control", "method": "After 48 h drug treatment, media was collected and assayed following the manufacturer’s instructions of Lactic Acid Production Detection kit (KeyGen, Nanjing, China) to measure the generation of lactic acid. The assay was determined using a plate reader (Synergy HT, BioTek, USA) at 530 nm. Met was used as a positive control."}, "[9]": {"system": "SW480 cells", "assay": "Soft agar colony formation assay", "format": "cell-based, human", "details": "100 μM", "method": "About 0.6% agar was poured into the six-well plate. […] Media was changed every three days, and colonies were further observed for 10 days. Colonies were then stained with 0.01% of crystal violet staining solution for 2 h."}, "[10]": {"system": "SW480 cells xenograft", "details": "for decrease of size and weight of tumors: 16 days, versus vehicle", "method": "All animal experiments were performed in accordance with the Guide for the Care and Use of Laboratory Animals of Tongji Medical College, Huazhong University of Science and Technology and approved by the Ethics Committee. CB-17/ SCID mice (male, 4 weeks old) were purchased from Beijing HFK Bioscience CO., LTD (Beijing, China). SW480 cells were inoculated subcutaneously (3 × 10^6 cells) into the left flank of each mouse. […] The dose volume was 0.1 mL/10 g body weight, and the weights of mice were recorded every day. Meanwhile, the tumor volumes were measured with vernier calipers and calculated by the following formula: (A × B^2)/2, where A was length and B was width of the two-dimension tumor. After animals were sacrificed, tumor weights were measured. The inhibition ratio (%) was calculated using the following equation: I% = 100% × [Wtumor (vehicle) − Wtumor (treated)]/Wtumor (vehicle)"}, "[11]": {"system": "SW480 cells", "assay": "Cell proliferation assay (CCK-8)", "format": "cell-based, human", "details": "100, 200, 400 μM, 24-96 h", "method": "(§3) HCT116 and SW480 cells were seeded at a density of 2 × 10^3 per well into 96-well plates. Cell proliferation was assessed by incubating them with Cell Counting Kit-8 reagents (Dojindo, Shanghai, China) for 24 h,48 h, 72 h, 96 h at 37 °C and measuring the absorbance at 450 nm. The experiment was performed in triplicate."}, "[12]": {"system": "HCT116 cells", "assay": "Cell proliferation assay (CCK-8)", "format": "cell-based, human", "details": "100, 200, 400 μM, 24-96 h", "method": "as §3"}, "[13]": {"system": "SW480 cells", "assay": "Flow cytometric analysis for apoptosis (Annexin-V/PI)", "format": "cell-based, human", "details": "48 h, control 0.7%", "method": "Then the cells were harvested, washed twice with ice-cold PBS, and mixed in 100 μL of 1× binding buffer (10 mM HEPES/ NaOH, pH 7.4, 140 mM NaCl, 2.5 mM CaCl2). After culturing for 15 min at room temperature in Annexin-V/PI double staining liquid (Nanjing KeyGen Biotech. Inc.), the cells were examined by flow cytometry (BD Biosciences, FACSCalibur)."}, "[14]": {"molecular_target": "T2, G6P-DH (Leuconostoc mesenteroides, UniProt P11411)", "T2 construct": "purchased Roche (Switzerland)", "T2 sequence (P11411 1-486)": "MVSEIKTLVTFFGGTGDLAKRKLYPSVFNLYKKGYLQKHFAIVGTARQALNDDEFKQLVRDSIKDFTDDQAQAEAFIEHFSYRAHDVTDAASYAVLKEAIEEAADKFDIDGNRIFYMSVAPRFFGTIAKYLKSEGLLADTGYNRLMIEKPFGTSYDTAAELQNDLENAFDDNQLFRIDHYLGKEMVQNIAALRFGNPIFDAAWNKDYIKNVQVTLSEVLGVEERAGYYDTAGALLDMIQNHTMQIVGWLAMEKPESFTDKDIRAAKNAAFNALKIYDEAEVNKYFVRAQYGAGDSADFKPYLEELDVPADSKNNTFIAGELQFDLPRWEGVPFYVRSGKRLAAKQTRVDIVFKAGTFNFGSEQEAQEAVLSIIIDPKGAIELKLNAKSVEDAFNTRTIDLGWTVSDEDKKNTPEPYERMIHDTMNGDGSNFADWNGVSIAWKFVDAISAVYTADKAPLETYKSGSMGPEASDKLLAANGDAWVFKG", "assay": "Interference with coupling enzyme", "format": "biochemical", "method": "as §1"}}, "note": "Where two headings read alike, the source gives them in different places."}
{"smiles": "NC(CO)C(=O)NNCc1ccc(O)c(O)c1O", "note": "(centres unmarked) [Benz, Benserazide]", "values": [{"measurement": "IC50", "setting": "[1]", "result": "40.5 ± 2.94", "unit": "µM"}, {"measurement": "IC50", "setting": "[2]", "result": "151 ± 4.5", "unit": "µM"}, {"measurement": "IC50", "setting": "[3]", "result": "210 ± 7.9", "unit": "µM"}, {"measurement": "IC50 at 48 h", "setting": "[4]; African green monkey, Vero normal cells", "result": "> 500", "unit": "µM"}, {"measurement": "IC50 at 48 h", "setting": "[4]; human, LO2 normal cells", "result": "> 500", "unit": "µM"}, {"measurement": "IC50", "setting": "[5]", "result": "186 ± 12.5", "unit": "µM"}, {"measurement": "IC50", "setting": "[6]", "result": "143 ± 7", "unit": "µM"}, {"measurement": "IC50", "setting": "[7]", "result": "181 ± 11.5", "unit": "µM"}, {"measurement": "concentration of lactate in cell culture supernatant", "setting": "[8]", "result": "remarkably decreased"}, {"measurement": "anchorage-independent growth (colony formation)", "setting": "[9]", "result": "dramatically reduced the ability to form colonies"}, {"measurement": "decrease of size and weight of tumors", "setting": "[10]; 300 mg/Kg per day i.p.", "result": 30.1, "unit": "%"}, {"measurement": "decrease of size and weight of tumors", "setting": "[10]; 600 mg/Kg per day i.p.", "result": 60.3, "unit": "%"}, {"measurement": "toxicity in mice", "setting": "[10]; mouse, in vivo", "result": "no toxicity shown"}, {"measurement": "body weight and histomorphology", "setting": "[10]; tumor-bearing mice, daily i.p. 16 days", "result": "no remarkable loss of body weight and change of histomorphology"}, {"measurement": "cell proliferation", "setting": "[11]", "result": "markedly inhibited proliferation"}, {"measurement": "cell proliferation", "setting": "[12]", "result": "markedly inhibited proliferation"}, {"measurement": "apoptotic death", "setting": "[13]; 75 μM", "result": 10.4, "unit": "%"}, {"measurement": "apoptotic death", "setting": "[13]; 150 μM", "result": 22.5, "unit": "%"}, {"measurement": "apoptotic death", "setting": "[13]; 300 μM", "result": 44.1, "unit": "%"}, {"measurement": "interference with G6P-DH activity", "setting": "[14]", "result": "No Benz interference"}]}
